Experimental data published in US11479551B2, “MTA-cooperative PRMT5 inhibitors” (Mirati Therapeutics, Inc., priority 2019, dated 2022).

Assays:
[1] = test system: PRMT5-dependent Symmetric Di-methyl Arginine signal in HCT116 parental cells; test: SYM11 In-Cell Western, HCT116 parental; type: cell-based; settings: Homo sapiens, HCT-116, 96 h, 4 days of treatment, SYM11/DRAQ5 ratio
In short: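 HCT116 parental cells (2,000/well, McCoy's 5A with 10% FBS) dosed with PRMT5 inhibitors for four days at 37° C. Fixed in paraformaldehyde and methanol, then stained with SYM11 antibody and DRAQ5.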

[2] = test system: PRMT5-dependent Symmetric Di-methyl Arginine signal in HCT116 homozygous MTAP knockout cells; test: SYM11 In-Cell Western, HCT116 MTAP knockout; type: cell-based; settings: Homo sapiens, HCT-116, 96 h, HCT116 homozygous MTAP knockout cells, 4 days of treatment, SYM11/DRAQ5 ratio; read-out: In-cell-Western (SYM11) HCT116 MTAP_KO IC50
[3] = biological target: PRMT5/MEP50 complex (Homo sapiens (Human), UniProt O14744); test: PRMT5:MEP50 HotSpot Assay (full-length histone H2A substrate, plus and minus MTA); type: biochemical; settings: IC50 + 2 μM MTA, in the presence of 2 μM MTA
Chain of PRMT5/MEP50 complex (O14744 2-637): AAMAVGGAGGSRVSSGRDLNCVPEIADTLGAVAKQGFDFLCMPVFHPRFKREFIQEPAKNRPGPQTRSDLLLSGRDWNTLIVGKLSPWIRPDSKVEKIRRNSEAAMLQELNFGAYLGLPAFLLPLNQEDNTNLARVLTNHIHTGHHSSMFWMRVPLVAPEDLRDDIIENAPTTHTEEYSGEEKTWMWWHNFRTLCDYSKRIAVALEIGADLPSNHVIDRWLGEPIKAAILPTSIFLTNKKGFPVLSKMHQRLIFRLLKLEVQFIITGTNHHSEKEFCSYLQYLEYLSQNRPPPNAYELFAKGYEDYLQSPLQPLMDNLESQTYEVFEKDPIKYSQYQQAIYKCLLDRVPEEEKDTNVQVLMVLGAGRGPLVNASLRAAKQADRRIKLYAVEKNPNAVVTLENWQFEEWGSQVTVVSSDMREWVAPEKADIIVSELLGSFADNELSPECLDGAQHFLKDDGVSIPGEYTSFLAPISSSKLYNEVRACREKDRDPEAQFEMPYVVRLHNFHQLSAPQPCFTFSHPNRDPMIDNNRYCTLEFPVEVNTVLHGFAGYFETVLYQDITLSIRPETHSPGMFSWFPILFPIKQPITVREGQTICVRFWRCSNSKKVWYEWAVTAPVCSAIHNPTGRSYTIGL
Chain of PRMT5/MEP50 complex (Q9BQA1 2-342 partner): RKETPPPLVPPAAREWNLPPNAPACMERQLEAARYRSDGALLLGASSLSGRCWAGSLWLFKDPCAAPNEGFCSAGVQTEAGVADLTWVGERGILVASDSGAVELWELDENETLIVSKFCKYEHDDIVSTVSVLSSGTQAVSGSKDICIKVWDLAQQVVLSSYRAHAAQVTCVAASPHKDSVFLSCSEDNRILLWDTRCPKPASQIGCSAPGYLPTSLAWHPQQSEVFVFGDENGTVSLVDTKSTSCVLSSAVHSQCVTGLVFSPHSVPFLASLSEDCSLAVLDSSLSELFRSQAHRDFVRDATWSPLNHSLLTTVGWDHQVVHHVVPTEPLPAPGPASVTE
In short: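 Radiometric filter-binding format using recombinant full-length histone H2A as substrate. After the reaction was stopped, mixtures went onto filter paper and tritiated H2A was quantified by scintillation counting.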

[4] = test system: HCT116 parental cells; test: Proliferation assay (CellTiter-Glo, 10 days of treatment), HCT116 parental; type: cell-based; settings: Homo sapiens, HCT-116, 240 h
In short: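 250 cells seeded in McCoy's 5A with 10% FBS, then given a dose response of PRMT5 inhibitor at 37 °C, 5% CO2 for five days. Cells were split 1:10 on Day 6 into fresh medium with the same compound concentration for 5 more days. Viability read on Day 11 by CellTiter-Glo; IC50 after 10 days of treatment.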

[5] = test system: HCT116 homozygous MTAP knockout cells; test: Proliferation assay (CellTiter-Glo, 10 days of treatment), HCT116 MTAP knockout; type: cell-based; settings: Homo sapiens, HCT-116, 240 h, read-out: Proliferation HCT116MTAP_KO IC50
In short: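 Cells (250/well) seeded in McCoy's 5A with 10% FBS, then treated the next day with a PRMT5 inhibitor dose response at 37 °C, 5% CO2. On day 6 they were split 1:10 into fresh medium with the same compound concentration. CellTiter-Glo viability was read on day 11 and IC50 taken after 10 days of treatment.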

Structure (SMILES)	IC50 [2] [nM]	IC50 [3] [nM]	IC50 [5] [nM]	IC50 [1] [nM]	IC50 [4] [nM]
COc1cc(Cl)c(C#N)c(-c2c(-c3ccc4c(=O)[nH]nc(CN)c4c3)cnn2C)c1 [Example 4-169, 2-(4-(4-(aminomethyl)-1-oxo-1,2-dihydrophthalazin-6-yl)-1-methyl-1H-pyrazol-5-yl)-6-chloro-4-methoxybenzonitrile]	35.5	1350	294	4520	> 10000
Cc1cc(Cl)cc(-c2c(-c3ccc4c(=O)[nH]nc(CN)c4c3)cnn2C)c1C#N [Example 4-180, 2-(4-(4-(aminomethyl)-1-oxo-1,2-dihydrophthalazin-6-yl)-1-methyl-1H-pyrazol-5-yl)-4-chloro-6-methylbenzonitrile]	31.9	597	7110	1410	121
Cn1ncc(-c2ccc3c(=O)[nH]nc(CN)c3c2)c1-c1ccc2ccccc2n1 [Example 4-182, 4-(aminomethyl)-6-(1-methyl-5-(quinolin-2-yl)-1H-pyrazol-4-yl)phthalazin-1(2H)-one]	58	1420	572	> 1000	7250
Cn1ncc(-c2ccc3c(=O)[nH]nc(CN)c3c2)c1-c1ccc2c(Cl)cccc2c1C#N [Example 4-184, 2-(4-(4-(aminomethyl)-1-oxo-1,2-dihydrophthalazin-6-yl)-1-methyl-1H-pyrazol-5-yl)-5-chloro-1-naphthonitrile]	4	127	107	> 10000	9400
Cn1ncc(-c2ccc3c(=O)[nH]nc(CN)c3c2)c1-c1cnn(Cc2ccccc2)c1Cl [Example 4-187, 4-(aminomethyl)-6-(1′-benzyl-5′-chloro-2-methyl-1′H,2H-[3,4′-bipyrazol]-4-yl)phthalazin-1(2H)-one]	7	239	1900	1000	1360
Cn1ncc(-c2ccc3c(=O)[nH]nc(CN)c3c2)c1-c1cc(Cl)cc(OC2CC2)c1C#N [Example 4-188, 2-(4-(4-(aminomethyl)-1-oxo-1,2-dihydrophthalazin-6-yl)-1-methyl-1H-pyrazol-5-yl)-4-chloro-6-cyclopropoxybenzonitrile]	4	99	39	> 10000	904
CCCc1cccc(-c2c(-c3ccc4c(=O)[nH]nc(CN)c4c3)cnn2C)c1C#N [Example 4-189, 2-(4-(4-(aminomethyl)-1-oxo-1,2-dihydrophthalazin-6-yl)-1-methyl-1H-pyrazol-5-yl)-6-propylbenzonitrile]	31	656	234	1830	> 10000
Cn1ncc(-c2ccc3c(=O)[nH]nc(CN)c3c2)c1-c1ccc2cccnc2c1C#N [Example 4-192, 7-(4-(4-(aminomethyl)-1-oxo-1,2-dihydrophthalazin-6-yl)-1-methyl-1H-pyrazol-5-yl)quinoline-8-carbonitrile]	256	890	2140	> 10000	> 10000
Cn1ncc(-c2ccc3c(=O)[nH]nc(CN)c3c2)c1-c1ccc2c(c1C#N)CCCO2 [Example 4-196, 6-(4-(4-(aminomethyl)-1-oxo-1,2-dihydrophthalazin-6-yl)-1-methyl-1H-pyrazol-5-yl)chromane-5-carbonitrile]	11	653	154	1320	9290
COc1cnc2ccc(-c3c(-c4ccc5c(=O)[nH]nc(CN)c5c4)cnn3C)c(C#N)c2c1 [Example 4-197, 6-(4-(4-(aminomethyl)-1-oxo-1,2-dihydrophthalazin-6-yl)-1-methyl-1H-pyrazol-5-yl)-3-methoxyquinoline-5-carbonitrile]	25	719	256	> 1000	8570
Cn1ncc(-c2ccc3c(=O)[nH]nc(CN)c3c2)c1-c1cccc(C2CC2)c1C#N [Example 4-198, 2-(4-(4-(aminomethyl)-1-oxo-1,2-dihydrophthalazin-6-yl)-1-methyl-1H-pyrazol-5-yl)-6-cyclopropylbenzonitrile]	21	111	136	1270	7340
CCc1cc(Cl)cc(-c2c(-c3ccc4c(=O)[nH]nc(CN)c4c3)cnn2C)c1C#N [Example 4-200, 2-(4-(4-(aminomethyl)-1-oxo-1,2-dihydrophthalazin-6-yl)-1-methyl-1H-pyrazol-5-yl)-4-chloro-6-ethylbenzonitrile]	32	156	71	1750	4300
CCc1cc(OC)cc(-c2c(-c3ccc4c(=O)[nH]nc(CN)c4c3)cnn2C)c1C#N [Example 4-202, 2-(4-(4-(aminomethyl)-1-oxo-1,2-dihydrophthalazin-6-yl)-1-methyl-1H-pyrazol-5-yl)-6-ethyl-4-methoxybenzonitrile]	8	255	232	> 1000	2370

The next lines start with results.

IC50 [2] [nM]	IC50 [3] [nM]	IC50 [5] [nM]	Structure (SMILES)	IC50 [1] [nM]	IC50 [4] [nM]
6	23	59	COc1cc(-c2c(-c3ccc4c(=O)[nH]nc(CN)c4c3)cnn2C)c(C#N)c2ccccc12 [Example 4-205, 2-(4-(4-(aminomethyl)-1-oxo-1,2-dihydrophthalazin-6-yl)-1-methyl-1H-pyrazol-5-yl)-4-methoxy-1-naphthonitrile]	> 1000	683
3	35	34	Cn1ncc(-c2ccc3c(=O)[nH]nc(CN)c3c2)c1-c1cc(Cl)c2ccccc2c1C#N [Example 4-206, 2-(4-(4-(aminomethyl)-1-oxo-1,2-dihydrophthalazin-6-yl)-1-methyl-1H-pyrazol-5-yl)-4-chloro-1-naphthonitrile]	> 1000	1000
2	102	44	Cn1ncc(-c2ccc3c(=O)[nH]nc(CN)c3c2)c1-c1sc2ccccc2c1C#N [Example 4-242, 2-(4-(4-(aminomethyl)-1-oxo-1,2-dihydrophthalazin-6-yl)-1-methyl-1H-pyrazol-5-yl)benzo[b]thiophene-3-carbonitrile]	> 1000	4990
15	41.7	36	Cn1ncc(-c2cc(Cl)c3c(=O)[nH]nc(CN)c3c2)c1-c1ccc2ccccc2c1C#N [Example 10-1, 2-(4-(4-(aminomethyl)-8-chloro-1-oxo-1,2-dihydrophthalazin-6-yl)-1-methyl-1H-pyrazol-5-yl)-1-naphthonitrile]	1120	2300
6	67.2	112	Cn1ncc(-c2cc(F)c3c(=O)[nH]nc(CN)c3c2)c1-c1ccc2ccccc2c1C#N [Example 10-2, 2-(4-(4-(aminomethyl)-8-fluoro-1-oxo-1,2-dihydrophthalazin-6-yl)-1-methyl-1H-pyrazol-5-yl)-1-naphthonitrile]	2480	3380
5	845	240	Cn1ncc(-c2cc(Cl)c3c(=O)[nH]nc(CN)c3c2)c1-c1cccc(Cl)c1C#N [Example 10-3, 2-(4-(4-(aminomethyl)-8-chloro-1-oxo-1,2-dihydrophthalazin-6-yl)-1-methyl-1H-pyrazol-5-yl)-6-chlorobenzonitrile]	3820	8480
7	417	128	CCc1cccc(-c2c(-c3cc(Cl)c4c(=O)[nH]nc(CN)c4c3)cnn2C)c1C#N [Example 10-4, 2-(4-(4-(aminomethyl)-8-chloro-1-oxo-1,2-dihydrophthalazin-6-yl)-1-methyl-1H-pyrazol-5-yl)-6-ethylbenzonitrile]	9220	> 10000
30	1150	250	CCOc1cccc(-c2c(-c3cc(Cl)c4c(=O)[nH]nc(CN)c4c3)cnn2C)c1C#N [Example 10-5, 2-(4-(4-(aminomethyl)-8-chloro-1-oxo-1,2-dihydrophthalazin-6-yl)-1-methyl-1H-pyrazol-5-yl)-6-ethoxybenzonitrile]	> 10000	> 10000
219	6630	4090	Cn1ncc(-c2cc(F)c3c(=O)[nH]nc(CN)c3c2)c1-c1cccc(Cl)c1C#N [Example 10-6, 2-(4-(4-(aminomethyl)-8-fluoro-1-oxo-1,2-dihydrophthalazin-6-yl)-1-methyl-1H-pyrazol-5-yl)-6-chlorobenzonitrile]	> 10000	> 10000
